# From article PMC4844176 (Xenobiotica; the fate of foreign compounds in biological …, 2015)
# Legend:
# UGT2B7 [1] = molecular target: T1, UGT2B7 (Homo sapiens, UniProt P16662); assay: Ki determination of aprepitant on 4-MU-G, M-6-G and AZT-G formation in UGT2B7
# T1 sequence (P16662 24-529): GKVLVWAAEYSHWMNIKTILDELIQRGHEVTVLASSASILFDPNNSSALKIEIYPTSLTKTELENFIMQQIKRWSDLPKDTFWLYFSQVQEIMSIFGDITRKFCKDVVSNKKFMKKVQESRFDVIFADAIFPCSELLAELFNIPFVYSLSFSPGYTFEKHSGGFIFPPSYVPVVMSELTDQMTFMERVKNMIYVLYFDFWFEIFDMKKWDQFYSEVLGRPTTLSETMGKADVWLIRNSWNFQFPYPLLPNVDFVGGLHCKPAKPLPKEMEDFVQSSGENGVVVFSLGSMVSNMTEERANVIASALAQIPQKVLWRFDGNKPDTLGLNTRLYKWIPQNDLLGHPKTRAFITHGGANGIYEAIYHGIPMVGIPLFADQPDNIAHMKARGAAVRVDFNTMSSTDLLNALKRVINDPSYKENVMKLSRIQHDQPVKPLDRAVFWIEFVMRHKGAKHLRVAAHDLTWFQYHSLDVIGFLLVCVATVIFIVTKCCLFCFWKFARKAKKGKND
# [2] = Calculated concentration of drug in the lumen of the gut; set-up: species or system human; conditions: molar dose/250 mL
# UGT2B10 = molecular target: T2, UGT2B10 (Homo sapiens, UniProt P36537); assay: Screening for aprepitant glucuronidation, UGT2B10 Supersomes; assay type: in vitro ADME; conditions: UGT2B10, 5 and 250 µM aprepitant
# T2 sequence (P36537 24-528): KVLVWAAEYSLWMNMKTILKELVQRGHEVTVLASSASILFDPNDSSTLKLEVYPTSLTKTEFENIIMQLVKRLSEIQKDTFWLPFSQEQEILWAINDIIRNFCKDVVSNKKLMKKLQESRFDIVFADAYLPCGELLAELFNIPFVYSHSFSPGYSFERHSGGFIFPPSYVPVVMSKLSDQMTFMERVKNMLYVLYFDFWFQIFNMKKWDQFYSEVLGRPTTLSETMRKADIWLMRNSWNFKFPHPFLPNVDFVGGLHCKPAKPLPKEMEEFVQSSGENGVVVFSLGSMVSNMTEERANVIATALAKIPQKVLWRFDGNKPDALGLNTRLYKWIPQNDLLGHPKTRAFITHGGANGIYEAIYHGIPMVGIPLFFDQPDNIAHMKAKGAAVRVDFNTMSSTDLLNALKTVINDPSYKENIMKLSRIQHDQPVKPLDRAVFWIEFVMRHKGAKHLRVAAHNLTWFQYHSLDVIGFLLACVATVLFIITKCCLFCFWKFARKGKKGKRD
# UGT1A4 = molecular target: T3, UGT1A4 (Homo sapiens, UniProt P22310); assay: Inhibition by aprepitant of UGT1A4; assay type: in vitro ADME; conditions: UGT1A4 enzyme, probe imipramine
# T3 sequence (P22310 29-534): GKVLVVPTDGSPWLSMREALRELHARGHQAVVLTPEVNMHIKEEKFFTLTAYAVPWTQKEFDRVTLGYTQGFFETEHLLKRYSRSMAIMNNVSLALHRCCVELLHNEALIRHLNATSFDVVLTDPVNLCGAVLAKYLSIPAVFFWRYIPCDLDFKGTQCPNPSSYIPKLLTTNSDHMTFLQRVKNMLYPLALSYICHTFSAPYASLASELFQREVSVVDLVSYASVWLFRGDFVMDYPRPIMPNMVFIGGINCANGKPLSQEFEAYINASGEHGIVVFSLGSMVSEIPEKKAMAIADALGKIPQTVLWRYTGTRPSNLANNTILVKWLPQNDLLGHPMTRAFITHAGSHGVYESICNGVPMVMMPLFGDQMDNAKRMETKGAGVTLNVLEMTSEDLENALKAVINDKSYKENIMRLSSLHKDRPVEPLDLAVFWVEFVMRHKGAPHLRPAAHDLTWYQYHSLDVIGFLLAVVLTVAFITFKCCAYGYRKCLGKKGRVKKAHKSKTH
# [3] = test system: human intestinal microsomes (HIM)
# UGT1A9 = molecular target: T4, UGT1A9 (Homo sapiens, UniProt O60656); assay: Screening for aprepitant glucuronidation, UGT1A9 Supersomes; assay type: in vitro ADME; conditions: UGT1A9, 5 and 250 µM aprepitant
# T4 sequence (O60656 26-530): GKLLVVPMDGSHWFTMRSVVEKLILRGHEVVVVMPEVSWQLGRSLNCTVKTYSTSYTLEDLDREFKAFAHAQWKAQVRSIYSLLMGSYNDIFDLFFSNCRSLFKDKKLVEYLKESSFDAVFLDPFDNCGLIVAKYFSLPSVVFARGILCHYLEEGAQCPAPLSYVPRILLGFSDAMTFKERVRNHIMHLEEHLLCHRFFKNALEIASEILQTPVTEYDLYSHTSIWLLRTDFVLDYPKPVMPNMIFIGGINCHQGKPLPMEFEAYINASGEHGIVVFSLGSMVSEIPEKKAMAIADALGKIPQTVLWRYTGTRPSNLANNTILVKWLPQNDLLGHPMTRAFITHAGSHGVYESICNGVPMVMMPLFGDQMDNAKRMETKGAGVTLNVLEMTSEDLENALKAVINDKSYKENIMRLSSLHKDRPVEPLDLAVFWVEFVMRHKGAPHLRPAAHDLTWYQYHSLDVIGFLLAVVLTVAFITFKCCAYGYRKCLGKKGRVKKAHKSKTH
# UGT2B7 [4] = molecular target: T1, UGT2B7; assay: Inhibition by aprepitant of UGT2B7; assay type: in vitro ADME; conditions: UGT2B7 enzyme, pH 7.5, probe 4-MU
# UGT2B7 [5] = molecular target: T1, UGT2B7; assay: Screening for aprepitant glucuronidation, UGT2B7 Supersomes; assay type: in vitro ADME; conditions: UGT2B7, 5 and 250 µM aprepitant
smiles,measurement,setting,value
"C[C@@H](O[C@H]1OCCN(Cc2n[nH]c(=O)[nH]2)[C@H]1c1ccc(F)cc1)c1cc(C(F)(F)F)cc(C(F)(F)F)c1 [aprepitant, Aprepitant]",inhibition model,"UGT2B7 [1]; UGT2B7, substrate 4-MU",competitive inhibition model
same,inhibition model,"UGT2B7 [1]; UGT2B7, substrate AZT",competitive inhibition model
same,inhibition model,"UGT2B7 [1]; UGT2B7, substrate morphine",noncompetitive model
same,luminal concentration (Igut),[2]; 40 mg oral capsule,300 µM
same,luminal concentration (Igut),[2]; 125 mg oral capsule,936 µM
same,AP-G formation,UGT2B10,not detected
same,"inhibition at 60 min, 10 µM",UGT1A4,18%
same,Vmax,"[3]; HIM, mean ± SE",352 ± 8 fmol/min/mg protein
same,velocity of AP-G formation,"[3]; human, 60 min, 250 µM, pH 7.5",278.3 ± 1.9 fmol/min/mg protein
same,AP-G formation,UGT1A9,not detected
same,inhibition at 1 µM,UGT2B7 [4],~17%
same,inhibition at 10 µM,UGT2B7 [4],70%
same,AP-G formation,UGT2B7 [5],not detected
